“And” between values parts separate entries of the source, which are not always exact repeats. Equal entries are not always repeated. Inconclusive results and toxic doses are left out. Cut-off read from the data, not from the text of the source: active = T/C of 150% or more; inactive = T/C below 125%.
System: L1210 leukemia ip in BDF1 mice, survival T/C
Assay: NCI In Vivo Anticancer Drug Screen. Data for tumor model L1210 Leukemia (intraperitoneal) in B6D2F1 (BDF1) mice
Conditions: endpoint: mean survival time, higher = longer survival
In short: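 In this screen, tumor-bearing mice given compound are compared to those given vehicle, and their survival values are reported as a treated-to-control quotient.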

[1] = dose: 100.0 mg/kg/injection, schedule: Q04DX003 (ip), vehicle: saline
[2] = dose: 200.0 mg/kg/injection, schedule: Q04DX003 (ip), vehicle: saline
[3] = dose: 100.0 mg/kg/injection, schedule: Q01DX001 (ip), vehicle: saline
[4] = dose: 100.0 mg/kg/injection, schedule: Q01DX009 (ip), vehicle: saline
[5] = dose: 200.0 mg/kg/injection, schedule: Q01DX001 (ip), vehicle: saline
[6] = dose: 400.0 mg/kg/injection, schedule: Q01DX001 (ip), vehicle: saline
[7] = dose: 400.0 mg/kg/injection, schedule: Q01DX009 (ip), vehicle: saline
[8] = dose: 50.0 mg/kg/injection, schedule: Q01DX009 (ip), vehicle: Klucel (hydroxypropylcellulose) (HPC)
[9] = dose: 100.0 mg/kg/injection, schedule: Q01DX009 (ip), vehicle: saline with Tween-80
[10] = dose: 200.0 mg/kg/injection, schedule: Q01DX009 (ip), vehicle: saline with Tween-80
[11] = dose: 100.0 mg/kg/injection, schedule: Q01DX009 (ip), vehicle: Klucel (hydroxypropylcellulose) (HPC)
[12] = dose: 100.0 mg/kg/injection, schedule: Q04DX003 (ip), vehicle: Klucel (hydroxypropylcellulose) (HPC)
[13] = dose: 200.0 mg/kg/injection, schedule: Q01DX009 (ip), vehicle: Klucel (hydroxypropylcellulose) (HPC)
[14] = dose: 200.0 mg/kg/injection, schedule: Q04DX003 (ip), vehicle: Klucel (hydroxypropylcellulose) (HPC)
[15] = dose: 400.0 mg/kg/injection, schedule: Q04DX003 (ip), vehicle: Klucel (hydroxypropylcellulose) (HPC)
[16] = dose: 400.0 mg/kg/injection, schedule: Q04DX003 (ip), vehicle: saline
[17] = dose: 50.0 mg/kg/injection, schedule: Q01DX009 (ip), vehicle: saline with Tween-80
[18] = dose: 100.0 mg/kg/injection, schedule: Q04DX003 (ip), vehicle: saline with Tween-80
[19] = dose: 200.0 mg/kg/injection, schedule: Q04DX003 (ip), vehicle: saline with Tween-80
[20] = dose: 100.0 mg/kg/injection, schedule: Q01DX001 (ip), vehicle: carboxymethylcellulose (CMC)
[21] = dose: 200.0 mg/kg/injection, schedule: Q01DX001 (ip), vehicle: carboxymethylcellulose (CMC)
[22] = dose: 400.0 mg/kg/injection, schedule: Q01DX001 (ip), vehicle: carboxymethylcellulose (CMC)

Measured: T/C

C=C(Cl)CSC(=S)N(CC)CC
inactive: dose: 50.0 mg/kg/injection, schedule: Q01DX009 (ip), vehicle: saline sonified 94 % of control | dose: 100.0 mg/kg/injection, schedule: Q01DX009 (ip), vehicle: saline sonified 94 % of control | [1] 105 % of control | dose: 200.0 mg/kg/injection, schedule: Q01DX009 (ip), vehicle: saline sonified 105 % of control | [2] 102 % of control

CC(C)(CS(C)(=O)=O)C(=O)O
inactive: [3] 98 % of control | [4] 89 % of control | [5] 98 % of control | [6] 101 % of control | [7] 91 % of control

CC1=CC(=Nc2ccc(N(CCCl)CCCl)cc2)C=CC1=O
inactive: [8] 110 % of control

O=C(CCl)NCC1(c2ccc(Cl)cc2)SC(CNC(=O)CCl)(c2ccc(Cl)cc2)S1 (centres undefined)
inactive: [9] 97 % of control | [10] 92 % of control | dose: 400.0 mg/kg/injection, schedule: Q01DX009 (ip), vehicle: saline with Tween-80 104 % of control

CCCCCCCNC(CC(C)C)C(=O)OCC (centres undefined)
inactive: dose: 25.0 mg/kg/injection, schedule: Q04DX002 (ip), vehicle: Klucel (hydroxypropylcellulose) (HPC) 91 % of control | dose: 50.0 mg/kg/injection, schedule: Q04DX002 (ip), vehicle: Klucel (hydroxypropylcellulose) (HPC) 97 % of control | dose: 100.0 mg/kg/injection, schedule: Q04DX002 (ip), vehicle: Klucel (hydroxypropylcellulose) (HPC) 94 % of control

CCCCNC(C)(C)C1(c2ccc(Cl)cc2)SSC(c2ccc(Cl)cc2)(C(C)(C)NCCCC)SS1 (centres undefined)
inactive: [11] 99 % of control | [12] 93 % of control | [13] 99 % of control | [14] 101 % of control | [15] 97 % of control

COc1ccc(OC)c(NC(=O)C2CC2)c1
inactive: [1] 94 % of control | [2] 99 % of control | [16] 103 % of control

C[N+]1(Cc2c[nH]c3ccsc23)CCCCC1
inactive: dose: 3.0 mg/kg/injection, schedule: Q01DX009 (ip), vehicle: saline with Tween-80 99 % of control | dose: 6.0 mg/kg/injection, schedule: Q01DX009 (ip), vehicle: saline with Tween-80 97 % of control | dose: 12.0 mg/kg/injection, schedule: Q01DX009 (ip), vehicle: saline with Tween-80 90 % of control | dose: 12.5 mg/kg/injection, schedule: Q04DX003 (ip), vehicle: saline with Tween-80 101 % of control

CC/C(CC(C)CC)=N\O (centres undefined)
inactive: [4] 101 % of control | [1] 93 % of control | dose: 200.0 mg/kg/injection, schedule: Q01DX009 (ip), vehicle: saline 101 % of control | [2] 98 % of control | [7] 101 % of control | [16] 91 % of control

CCOC(=O)c1c(C)[nH]c2c1C(=O)C(=O)C=C2
inactive: [3] 90 % of control

C/C(=C\Br)CBr
inactive: dose: 100.0 mg/kg/injection, schedule: Q01DX009 (ip), vehicle: acetone 97 % of control

COc1coc(CO)cc1=O
inactive: [17] 94 % of control | [9] 97 % of control

CSc1nc(C)c(Br)c(N2CC2)n1
inactive: dose: 50.0 mg/kg/injection, schedule: Q01DX Z (ip), vehicle: methylcellulose (MC) 95 % of control

CN1CCN(C(c2ccccc2)c2ccccc2)CC1
inactive: dose: 3.12 mg/kg/injection, schedule: Q01DX009 (ip), vehicle: Klucel (hydroxypropylcellulose) (HPC) 97 % of control | dose: 6.25 mg/kg/injection, schedule: Q01DX009 (ip), vehicle: Klucel (hydroxypropylcellulose) (HPC) 102 % of control | dose: 12.5 mg/kg/injection, schedule: Q01DX009 (ip), vehicle: Klucel (hydroxypropylcellulose) (HPC) 97 % of control | dose: 25.0 mg/kg/injection, schedule: Q01DX009 (ip), vehicle: Klucel (hydroxypropylcellulose) (HPC) 108 % of control | dose: 25.0 mg/kg/injection, schedule: Q04DX003 (ip), vehicle: Klucel (hydroxypropylcellulose) (HPC) 97 % of control | [8] 103 % of control | dose: 50.0 mg/kg/injection, schedule: Q04DX003 (ip), vehicle: Klucel (hydroxypropylcellulose) (HPC) 92 % of control

COC(=O)CSC(=O)C(O)c1ccccc1 (centres undefined)
inactive: [12] 96 % of control | [14] 103 % of control | [15] 103 % of control

C[N+](C)(CC(=O)Nc1cc(C(F)(F)F)cc(C(F)(F)F)c1)CC(=O)Nc1ccc(Cl)c(C(F)(F)F)c1
inactive: dose: 6.25 mg/kg/injection, schedule: Q04DX002 (ip), vehicle: saline with Tween-80 93 % of control | dose: 12.5 mg/kg/injection, schedule: Q04DX002 (ip), vehicle: saline with Tween-80 93 % of control | dose: 25.0 mg/kg/injection, schedule: Q04DX002 (ip), vehicle: saline with Tween-80 100 % of control and 91 % of control

O=C(O)c1cccnn1
inactive: [3] 104 % of control | [5] 97 % of control

CON1C(=O)C2(CCCCC2)C2=NOC3C(Br)CCCC231 (centres undefined)
inactive: dose: 100.0 mg/kg/injection, schedule: Q01DX001 (ip), vehicle: saline with Tween-80 92 % of control | [18] 106 % of control | dose: 200.0 mg/kg/injection, schedule: Q01DX001 (ip), vehicle: saline with Tween-80 95 % of control | [19] 97 % of control | dose: 400.0 mg/kg/injection, schedule: Q01DX001 (ip), vehicle: saline with Tween-80 95 % of control | dose: 400.0 mg/kg/injection, schedule: Q04DX003 (ip), vehicle: saline with Tween-80 95 % of control

Clc1ccc(Cl)c(SSc2cc(Cl)ccc2Cl)c1
inactive: [3] 101 % of control | [5] 98 % of control | [6] 89 % of control

O=C(Nc1ccc(Cl)c(Cl)c1)Nc1ccc(Cl)cc1O
inactive: [20] 100 % of control | [21] 96 % of control | [22] 96 % of control

S=C(Nc1ccccc1)N1CCCCC1
inactive: dose: 50.0 mg/kg/injection, schedule: Q01DX001 (ip), vehicle: carboxymethylcellulose (CMC) 97 % of control | [20] 100 % of control | [21] 97 % of control | [22] 103 % of control

CC(CCN1CCOCC1)(CN=C(N)N)c1cccc2ccccc12 (centres undefined)
inactive: dose: 12.5 mg/kg/injection, schedule: Q01DX009 (ip), vehicle: saline 111 % of control | dose: 25.0 mg/kg/injection, schedule: Q01DX009 (ip), vehicle: saline 97 % of control | dose: 25.0 mg/kg/injection, schedule: Q04DX002 (ip), vehicle: saline 93 % of control | dose: 50.0 mg/kg/injection, schedule: Q01DX009 (ip), vehicle: saline 100 % of control

COc1ccc(S(=O)(=O)N=[N+]=[N-])cc1
inactive: [3] 103 % of control | [5] 95 % of control

CN(C)c1ccc(N=C(C#N)C#N)cc1
inactive: dose: 75.0 mg/kg/injection, schedule: Q01DX001 (ip), vehicle: other 89 % of control | dose: 150.0 mg/kg/injection, schedule: Q01DX001 (ip), vehicle: other 95 % of control

OC1COC(OCc2ccccc2)C(O)C1O (centres undefined)
inactive: dose: 100.0 mg/kg/injection, schedule: Q01DX001 (ip), vehicle: Klucel (hydroxypropylcellulose) (HPC) 101 % of control | [18] 101 % of control | dose: 200.0 mg/kg/injection, schedule: Q01DX001 (ip), vehicle: Klucel (hydroxypropylcellulose) (HPC) 96 % of control | [19] 100 % of control | dose: 400.0 mg/kg/injection, schedule: Q01DX001 (ip), vehicle: Klucel (hydroxypropylcellulose) (HPC) 101 % of control

CCC(N)C(O)C(F)(F)C(F)(F)C(F)(F)F (centres undefined)
inactive: [3] 112 % of control | [5] 103 % of control

CCCCN1C(=O)N(CCCC)C(=O)C(Br)(Br)C1=O
inactive: [17] 97 % of control | [9] 105 % of control | [10] 97 % of control

CNO
inactive: [11] 100 % of control | [12] 95 % of control | [13] 97 % of control | [14] 95 % of control | [15] 109 % of control

COc1ccc(Cc2c3cc(OC)c(OC)cc3cc[n+]2C)cc1OC
inactive: dose: 12.5 mg/kg/injection, schedule: Q01DX009 (ip), vehicle: saline with Tween-80 103 % of control | dose: 25.0 mg/kg/injection, schedule: Q01DX009 (ip), vehicle: saline with Tween-80 100 % of control | [17] 105 % of control and 106 % of control | [18] 98 % of control | [19] 95 % of control

Source: PubChem BioAssay AID248 (DTP/NCI, 2004)
